Broadly, the Kd is the concentration at which binding is half-saturated. A word on the CC50: it is the concentration at which the toxic effect on the cells reaches its halfway point. Lower therefore signals greater toxicity to the cells. For orientation: EC50 means the concentration giving half of the maximal effect. One may read the IC50 as the concentration at which inhibition is half-maximal. A word on the AC50: it is the concentration at which the activity in the assay is half-maximal.

Here are results for eight compounds from ChEMBL document CHEMBL1201862, “PubChem BioAssay data set” (2004).

One assay has as its target Chaperone protein dnaK (Escherichia coli, UniProt C3TRK2). Description: E. coli DnaK binders, calorimetric Kd – biophysical, isothermal titration calorimetry, beta-domain, full-length DnaK, orthogonal assay for DnaK modulator project, SAR follow-up (AID 1495). (ITC needs no label: the signal is the heat of the interaction.)
For the next assay, the system named is HeLa. The assay can be described thus: Cytotoxicity counterscreen assay for transcriptional activators of heat shock protein 70 (Hsp70). [Related pubchem assays: 1203, 1252 ]. The following applies: Homo sapiens. In kind it is functional.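 Also: cells exposed to compound for 16 hours before readout.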
Assay [1] concerns the target T1, Alkaline phosphatase, tissue-nonspecific isozyme (Homo sapiens, UniProt P05186).
T1 sequence (P05186 whole entry): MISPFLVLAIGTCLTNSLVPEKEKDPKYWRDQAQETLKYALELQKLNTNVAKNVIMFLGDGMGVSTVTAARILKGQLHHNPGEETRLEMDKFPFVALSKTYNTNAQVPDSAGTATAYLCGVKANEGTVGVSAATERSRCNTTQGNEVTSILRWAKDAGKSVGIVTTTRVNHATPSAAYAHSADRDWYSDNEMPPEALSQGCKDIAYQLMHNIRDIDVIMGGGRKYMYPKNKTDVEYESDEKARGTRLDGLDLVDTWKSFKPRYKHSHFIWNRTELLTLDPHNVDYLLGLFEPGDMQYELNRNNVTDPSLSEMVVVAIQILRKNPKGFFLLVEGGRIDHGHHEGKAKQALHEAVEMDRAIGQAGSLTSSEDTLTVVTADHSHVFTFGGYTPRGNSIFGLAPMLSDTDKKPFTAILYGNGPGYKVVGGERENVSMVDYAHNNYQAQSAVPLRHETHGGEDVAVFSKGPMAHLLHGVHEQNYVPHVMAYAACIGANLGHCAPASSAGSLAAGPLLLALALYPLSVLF

The subject of the next assay is H9c2. Description: cells. The following applies: Rattus norvegicus, H9c2, Myocardium. In kind it is functional, cell-based.
A further assay addresses Mucolipin-3 (Homo sapiens, UniProt Q8TDD5). Description: Dose response cell-based high-throughput screening assay for agonists of the transient receptor potential channel ML3 (TRPML3). [Related pubchem assays: 1526, 1424, 1448 ]. Type of assay: functional.
The target in the next assay is Ion channel NompC (Danio rerio, UniProt Q7T1G6). Description: Fluorescence counterscreen assay for TRPML3 agonists: dose response cell-based high-throughput screening assay to identify agonists of the transient receptor potential channel N1 (TRPN1). [Related pubchem assays: 1526, 1424, 1448 ]. Type of assay: functional. On the technique in general: The purpose of a counterscreen is to sort out artefacts and off-target activity.

Assay [2] has as its target T2, Dual specificity protein phosphatase 6 (Rattus norvegicus, UniProt Q64346).
T2 sequence (Q64346 whole entry): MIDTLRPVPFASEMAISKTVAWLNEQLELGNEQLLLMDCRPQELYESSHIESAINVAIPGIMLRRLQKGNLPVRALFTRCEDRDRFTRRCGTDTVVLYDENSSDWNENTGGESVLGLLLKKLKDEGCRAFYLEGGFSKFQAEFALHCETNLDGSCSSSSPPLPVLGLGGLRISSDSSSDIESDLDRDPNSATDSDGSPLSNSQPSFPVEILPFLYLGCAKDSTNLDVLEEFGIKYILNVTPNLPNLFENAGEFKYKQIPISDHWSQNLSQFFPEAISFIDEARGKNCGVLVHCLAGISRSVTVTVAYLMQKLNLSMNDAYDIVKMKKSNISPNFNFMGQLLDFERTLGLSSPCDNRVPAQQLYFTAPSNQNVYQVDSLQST

Assay [3] concerns the target T2, Dual specificity protein phosphatase 6. In kind it is functional.
Assay [4] concerns the target Heat shock 70 kDa protein 1A (Homo sapiens, UniProt P0DMV8). The assay can be described thus: inhibition of Hsp70 binding activity – biochemical, fluorescence polarization, SAR follow-up (AID 1072). For orientation: In fluorescence polarisation assays a small probe gives low polarisation when free and higher when bound to something large.
Assay [5] has as its target T3, Tyrosine-protein phosphatase non-receptor type 7 (Homo sapiens, UniProt P35236).
T3 sequence (P35236 whole entry): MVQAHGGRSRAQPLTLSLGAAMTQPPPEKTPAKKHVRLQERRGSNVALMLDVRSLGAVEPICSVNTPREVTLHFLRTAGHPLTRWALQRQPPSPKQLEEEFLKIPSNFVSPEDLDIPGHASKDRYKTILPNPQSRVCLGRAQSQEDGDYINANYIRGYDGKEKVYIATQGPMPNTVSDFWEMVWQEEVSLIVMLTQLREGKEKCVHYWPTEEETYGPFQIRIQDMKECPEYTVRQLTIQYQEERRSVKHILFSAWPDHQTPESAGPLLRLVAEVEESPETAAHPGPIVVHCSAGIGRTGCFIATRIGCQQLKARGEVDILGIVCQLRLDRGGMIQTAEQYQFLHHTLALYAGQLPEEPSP
In kind it is functional.

Assay [6] addresses Glyceraldehyde-3-phosphate dehydrogenase (Homo sapiens, UniProt P04406).
Assay [7] deals with Heat shock cognate 71 kDa protein (Homo sapiens, UniProt P11142). Description: In Vitro Hsc70 Dose Response Fluorescence Polarization Assay. [Related pubchem assays: 1072 ].
The target in assay [8] is T4, Dual specificity protein phosphatase 3 (Homo sapiens, UniProt P51452). Description: MOA VHR1 Fluorescent secondary assay for identification of redox-state modulating compounds. [Related pubchem assays (depositor defined):AID1654, AID1661, AID1878, AID1957].
In assay [9] the target is T4, Dual specificity protein phosphatase 3. Description: SAR VHR1 Fluorescent Assay for In Vitro dose response studies. [Related pubchem assays (depositor defined):AID1654, AID1661, AID1878, AID1992, AID2004, AID2070, AID2085]. Type of assay: functional.
In assay [10] the target is T3, Tyrosine-protein phosphatase non-receptor type 7. The assay can be described thus: redox-active compounds inhibiting HePTP phosphatase – biochemical, fluorescence, mechanism study (AID 2068). Type of assay: functional.
The target in assay [11] is T5, Short transient receptor potential channel 4 (Mus musculus, UniProt Q9QUQ5).
T5 sequence (Q9QUQ5 whole entry): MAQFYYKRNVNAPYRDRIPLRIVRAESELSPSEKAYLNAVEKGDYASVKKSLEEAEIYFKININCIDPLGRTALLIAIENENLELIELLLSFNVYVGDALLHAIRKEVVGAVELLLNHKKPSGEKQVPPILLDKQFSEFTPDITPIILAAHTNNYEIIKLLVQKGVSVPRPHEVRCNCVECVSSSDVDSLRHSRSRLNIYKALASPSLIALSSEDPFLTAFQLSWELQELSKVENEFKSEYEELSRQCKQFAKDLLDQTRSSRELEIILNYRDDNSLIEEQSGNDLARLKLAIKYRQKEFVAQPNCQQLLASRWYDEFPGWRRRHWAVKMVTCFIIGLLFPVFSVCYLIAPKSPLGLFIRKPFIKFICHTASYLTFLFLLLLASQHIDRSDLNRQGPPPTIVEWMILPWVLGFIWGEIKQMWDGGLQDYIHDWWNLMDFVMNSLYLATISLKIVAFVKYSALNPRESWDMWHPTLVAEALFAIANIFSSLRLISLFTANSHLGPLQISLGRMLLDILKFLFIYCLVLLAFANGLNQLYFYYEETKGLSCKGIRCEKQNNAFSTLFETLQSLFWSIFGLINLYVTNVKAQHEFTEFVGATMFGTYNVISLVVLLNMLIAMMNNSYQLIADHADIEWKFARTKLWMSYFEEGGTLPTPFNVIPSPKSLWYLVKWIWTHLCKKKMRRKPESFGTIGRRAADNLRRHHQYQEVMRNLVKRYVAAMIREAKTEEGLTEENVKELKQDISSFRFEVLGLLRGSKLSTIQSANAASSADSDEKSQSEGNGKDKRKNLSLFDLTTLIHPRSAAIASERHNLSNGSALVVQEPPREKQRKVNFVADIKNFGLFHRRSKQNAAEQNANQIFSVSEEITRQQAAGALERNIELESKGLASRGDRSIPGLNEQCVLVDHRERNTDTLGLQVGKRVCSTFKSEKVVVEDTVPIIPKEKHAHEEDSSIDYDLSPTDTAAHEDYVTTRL
The assay can be described thus: calcium entry via TRPC4 opening agents – cell-based, HEK293 TRPC4/mu-opioid, Fluo-4 calcium, dose response (AID 434937). In kind it is functional.

For assay [12], the target named is Lysosomal acid glucosylceramidase (Homo sapiens, UniProt P04062). The assay can be described thus: Dose response cell-based high throughput screening assay to identify enhancers of beta-glucosidase activity. [Related pubchem assays: 784 ]. In kind it is functional.
The target of assay [13] is 5-hydroxytryptamine receptor 1A (Homo sapiens, UniProt P08908). Type of assay: functional.
The test system of assay [14] is Vibrio harveyi. Description: LuxS/LuxPQ-dependent luminescence inhibition, V. harveyi – dry powder, set 2, dose response (AID 493072). In kind it is functional, organism-based.
In assay [15] the test system is Vibrio harveyi. Description: Quorum Sensing, LuxS, LuxPQ Measured in Microorganism System Using Plate Reader - 2035-01_Inhibitor_DoseNoFile_DryPowder_Activity. [Related pubchem assays (depositor defined):AID2106]. Type of assay: functional, organism-based.

The source made the active and inactive calls.

T4 sequence (P51452 whole entry): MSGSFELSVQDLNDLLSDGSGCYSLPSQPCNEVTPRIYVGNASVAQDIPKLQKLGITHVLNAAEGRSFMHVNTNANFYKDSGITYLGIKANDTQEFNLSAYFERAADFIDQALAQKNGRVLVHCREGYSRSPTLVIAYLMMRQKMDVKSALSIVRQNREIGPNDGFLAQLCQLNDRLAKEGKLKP
Sequence of Glyceraldehyde-3-phosphate dehydrogenase (P04406 whole entry): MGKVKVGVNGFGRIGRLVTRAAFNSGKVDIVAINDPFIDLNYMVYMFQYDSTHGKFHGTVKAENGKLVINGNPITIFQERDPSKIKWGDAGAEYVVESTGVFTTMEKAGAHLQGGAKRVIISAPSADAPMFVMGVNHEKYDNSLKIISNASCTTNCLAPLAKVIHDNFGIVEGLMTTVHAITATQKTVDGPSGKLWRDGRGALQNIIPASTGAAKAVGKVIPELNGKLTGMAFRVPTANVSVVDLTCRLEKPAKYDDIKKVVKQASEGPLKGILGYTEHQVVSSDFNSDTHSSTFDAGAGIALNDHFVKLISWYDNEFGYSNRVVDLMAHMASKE
Sequence of 5-hydroxytryptamine receptor 1A (P08908 whole entry): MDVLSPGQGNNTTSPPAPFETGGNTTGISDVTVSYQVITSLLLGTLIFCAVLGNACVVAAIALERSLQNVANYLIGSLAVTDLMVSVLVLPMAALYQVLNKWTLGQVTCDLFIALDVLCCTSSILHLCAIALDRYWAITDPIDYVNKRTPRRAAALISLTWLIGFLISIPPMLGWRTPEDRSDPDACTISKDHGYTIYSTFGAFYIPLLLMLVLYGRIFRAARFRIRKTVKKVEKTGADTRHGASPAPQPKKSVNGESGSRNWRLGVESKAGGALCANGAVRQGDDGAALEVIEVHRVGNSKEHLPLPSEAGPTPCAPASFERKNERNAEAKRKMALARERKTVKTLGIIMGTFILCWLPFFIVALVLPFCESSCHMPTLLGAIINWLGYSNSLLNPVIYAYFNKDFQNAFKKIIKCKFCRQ
Sequence of Ion channel NompC (Q7T1G6 whole entry): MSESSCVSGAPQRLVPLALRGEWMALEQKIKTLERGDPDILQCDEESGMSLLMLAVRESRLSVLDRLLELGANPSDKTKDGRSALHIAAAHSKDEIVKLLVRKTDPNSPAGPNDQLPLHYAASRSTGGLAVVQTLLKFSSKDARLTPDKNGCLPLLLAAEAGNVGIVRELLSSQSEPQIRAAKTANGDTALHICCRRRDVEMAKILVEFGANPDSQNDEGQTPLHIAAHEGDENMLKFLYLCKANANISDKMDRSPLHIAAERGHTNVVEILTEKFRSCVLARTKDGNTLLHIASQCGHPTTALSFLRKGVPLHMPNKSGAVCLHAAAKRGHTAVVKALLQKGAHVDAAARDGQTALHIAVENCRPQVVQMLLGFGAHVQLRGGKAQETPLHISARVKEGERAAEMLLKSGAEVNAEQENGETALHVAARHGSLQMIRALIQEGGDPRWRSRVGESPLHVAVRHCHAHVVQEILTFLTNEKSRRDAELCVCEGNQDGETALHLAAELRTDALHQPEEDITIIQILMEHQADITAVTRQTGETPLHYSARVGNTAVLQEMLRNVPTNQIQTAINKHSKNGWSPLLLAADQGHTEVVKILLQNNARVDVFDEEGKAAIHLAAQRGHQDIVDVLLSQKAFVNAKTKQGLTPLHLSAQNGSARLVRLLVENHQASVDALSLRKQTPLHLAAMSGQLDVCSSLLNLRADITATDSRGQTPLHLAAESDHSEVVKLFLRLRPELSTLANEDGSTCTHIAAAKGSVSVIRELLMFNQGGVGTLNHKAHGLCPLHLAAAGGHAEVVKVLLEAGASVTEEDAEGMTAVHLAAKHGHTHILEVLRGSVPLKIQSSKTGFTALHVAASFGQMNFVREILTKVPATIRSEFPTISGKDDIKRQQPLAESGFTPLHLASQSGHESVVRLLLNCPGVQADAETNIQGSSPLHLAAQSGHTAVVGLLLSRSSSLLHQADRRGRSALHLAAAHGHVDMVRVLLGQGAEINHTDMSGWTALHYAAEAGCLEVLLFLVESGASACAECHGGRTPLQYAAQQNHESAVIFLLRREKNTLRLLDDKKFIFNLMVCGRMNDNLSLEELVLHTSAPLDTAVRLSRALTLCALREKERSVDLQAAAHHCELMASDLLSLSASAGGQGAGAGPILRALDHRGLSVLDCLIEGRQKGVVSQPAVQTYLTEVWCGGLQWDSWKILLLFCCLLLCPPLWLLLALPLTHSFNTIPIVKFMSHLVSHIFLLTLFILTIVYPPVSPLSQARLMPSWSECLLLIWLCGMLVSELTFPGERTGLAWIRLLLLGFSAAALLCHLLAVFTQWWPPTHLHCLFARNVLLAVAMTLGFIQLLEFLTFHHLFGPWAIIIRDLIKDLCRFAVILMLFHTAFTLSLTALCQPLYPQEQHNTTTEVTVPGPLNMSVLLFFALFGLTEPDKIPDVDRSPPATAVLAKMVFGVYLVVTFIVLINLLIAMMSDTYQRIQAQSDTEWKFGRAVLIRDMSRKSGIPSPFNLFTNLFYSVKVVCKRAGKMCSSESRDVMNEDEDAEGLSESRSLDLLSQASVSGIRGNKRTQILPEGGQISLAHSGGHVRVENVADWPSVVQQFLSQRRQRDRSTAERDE
Sequence of Heat shock 70 kDa protein 1A (P0DMV8 whole entry): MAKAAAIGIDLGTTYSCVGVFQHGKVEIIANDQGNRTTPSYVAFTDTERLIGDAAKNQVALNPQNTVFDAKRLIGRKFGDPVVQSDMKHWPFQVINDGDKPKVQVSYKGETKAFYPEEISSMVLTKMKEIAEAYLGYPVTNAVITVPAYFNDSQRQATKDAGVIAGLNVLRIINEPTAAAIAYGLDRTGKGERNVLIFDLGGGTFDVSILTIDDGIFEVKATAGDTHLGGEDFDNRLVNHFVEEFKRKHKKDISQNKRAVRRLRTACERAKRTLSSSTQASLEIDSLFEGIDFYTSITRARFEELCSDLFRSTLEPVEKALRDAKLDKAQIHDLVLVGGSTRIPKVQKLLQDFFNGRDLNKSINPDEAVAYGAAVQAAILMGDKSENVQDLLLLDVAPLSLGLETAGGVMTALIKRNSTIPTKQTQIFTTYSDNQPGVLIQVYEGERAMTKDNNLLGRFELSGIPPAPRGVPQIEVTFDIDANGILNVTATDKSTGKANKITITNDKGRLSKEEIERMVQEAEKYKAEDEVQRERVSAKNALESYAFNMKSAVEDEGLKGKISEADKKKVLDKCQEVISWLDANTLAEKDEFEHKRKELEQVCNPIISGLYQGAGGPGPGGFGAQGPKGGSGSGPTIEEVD
Sequence of Mucolipin-3 (Q8TDD5 whole entry): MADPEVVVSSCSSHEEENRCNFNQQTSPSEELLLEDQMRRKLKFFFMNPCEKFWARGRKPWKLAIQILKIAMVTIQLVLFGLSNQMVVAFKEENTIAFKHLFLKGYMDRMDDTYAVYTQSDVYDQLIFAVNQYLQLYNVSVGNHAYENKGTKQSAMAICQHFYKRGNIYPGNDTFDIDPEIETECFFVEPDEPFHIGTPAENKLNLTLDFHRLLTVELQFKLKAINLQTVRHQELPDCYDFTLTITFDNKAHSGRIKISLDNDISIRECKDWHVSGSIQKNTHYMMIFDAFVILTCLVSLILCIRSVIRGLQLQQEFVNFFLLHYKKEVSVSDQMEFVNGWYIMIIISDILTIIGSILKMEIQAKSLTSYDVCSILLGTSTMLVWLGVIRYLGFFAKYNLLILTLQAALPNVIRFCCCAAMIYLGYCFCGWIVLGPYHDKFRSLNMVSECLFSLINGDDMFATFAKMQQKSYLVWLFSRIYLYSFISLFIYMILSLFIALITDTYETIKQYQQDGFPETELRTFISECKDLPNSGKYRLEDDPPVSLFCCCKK
Sequence of Lysosomal acid glucosylceramidase (P04062 whole entry): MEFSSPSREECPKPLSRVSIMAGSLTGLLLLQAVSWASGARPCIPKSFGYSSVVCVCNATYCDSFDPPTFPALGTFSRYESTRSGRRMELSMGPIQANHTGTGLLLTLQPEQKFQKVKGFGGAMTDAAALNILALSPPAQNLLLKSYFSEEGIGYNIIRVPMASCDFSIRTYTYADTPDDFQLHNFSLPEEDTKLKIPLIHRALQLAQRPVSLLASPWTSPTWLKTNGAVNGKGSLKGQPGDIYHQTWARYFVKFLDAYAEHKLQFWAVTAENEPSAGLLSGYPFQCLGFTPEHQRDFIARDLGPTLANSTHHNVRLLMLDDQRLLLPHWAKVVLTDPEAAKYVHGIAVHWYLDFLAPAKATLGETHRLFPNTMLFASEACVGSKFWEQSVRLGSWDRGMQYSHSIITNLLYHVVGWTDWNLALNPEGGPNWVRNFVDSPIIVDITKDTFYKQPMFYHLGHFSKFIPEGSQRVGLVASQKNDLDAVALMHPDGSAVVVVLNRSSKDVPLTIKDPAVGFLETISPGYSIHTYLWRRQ
Sequence of Heat shock cognate 71 kDa protein (P11142 whole entry): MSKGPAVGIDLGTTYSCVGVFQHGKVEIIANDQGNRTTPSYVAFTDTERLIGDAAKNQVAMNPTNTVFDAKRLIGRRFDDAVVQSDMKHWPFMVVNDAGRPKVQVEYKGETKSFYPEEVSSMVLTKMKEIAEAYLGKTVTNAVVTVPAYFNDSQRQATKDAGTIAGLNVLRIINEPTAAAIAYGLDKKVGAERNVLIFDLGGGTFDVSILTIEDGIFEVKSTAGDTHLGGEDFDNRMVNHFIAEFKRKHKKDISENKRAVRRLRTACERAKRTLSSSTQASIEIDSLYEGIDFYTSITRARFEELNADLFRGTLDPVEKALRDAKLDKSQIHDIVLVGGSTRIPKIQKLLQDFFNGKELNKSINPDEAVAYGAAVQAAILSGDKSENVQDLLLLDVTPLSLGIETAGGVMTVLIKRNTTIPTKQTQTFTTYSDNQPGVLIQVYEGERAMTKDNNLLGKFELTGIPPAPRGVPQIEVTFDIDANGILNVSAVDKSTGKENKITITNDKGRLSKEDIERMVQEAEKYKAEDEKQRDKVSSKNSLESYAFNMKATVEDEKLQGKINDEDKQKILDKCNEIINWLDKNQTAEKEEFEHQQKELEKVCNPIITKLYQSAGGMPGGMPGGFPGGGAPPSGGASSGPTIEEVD

Regarding `O=C(NCc1ccc(Cl)c(Cl)c1)c1cccs1`, the Kd on Chaperone protein dnaK is 7.3 µM (active).

As to `COc1ccc(C(CNC(=O)c2cc3ccccc3o2)N2CCCCC2)cc1` (stereo not given), in the assay with HeLa, the CC50 is > 99 µM (not active).

`Cc1ccc(O)c(-c2cc(C(=O)NCc3ccccc3)[nH]n2)c1`: the half-maximal effective concentration (EC50) in [1] is listed as > 100 µM (not active).

For the compound `CSc1nsc(SC)c1C(=O)N1CCN(S(=O)(=O)c2ccc(C)cc2)C1C(C)C` (stereo not given), the IC50 in the assay with H9c2 is > 79 µM (inactive). Also, the values for the EC50 at Mucolipin-3 and on Ion channel NompC were 10.5 µM (not active) and > 29.9 µM (not active), respectively.

`O=C(O)C1Nc2c(I)cccc2C2C=CCC12` (stereo not given): the IC50 in assay [2] was > 100 µM (inactive); in [3] it was > 100 µM (inactive); in assay [4], 3.13 µM (active); in assay [5], 71.4 µM (active); in assay [6], 47.8 µM (active); in [7] it was 14.1 µM (active).

For the compound `Cc1cc2nc3s/c(=C/c4ccc(-c5ccccc5C(=O)O)o4)c(=O)n3c2cc1C`, the IC50 in [2] is 9 µM (active); in assay [8] it was 2.39 µM (active); in assay [3] it was 26.4 µM (active); in [5], 3.63 µM (active); in [6] it was > 100 µM (not active); in assay [9], 7.49 µM (active). Also, the IC50 in assay [10] was 2.65 µM (active). The EC50 in assay [11] was 5.96 µM (active).

For `CCc1ccc(NC(=O)Cn2c(SC)nc3ccccc32)cc1`, the concentration giving a half-maximal response (EC50) in [12] and in assay [13] was > 50 µM (not active) in each case.

For `C=Cn1c(C(=O)O)ccc1-c1ccc(CC)cc1`, the AC50 was 5.53 µM (active) in the assay on Vibrio harveyi [14], 4.66 µM (active) in the assay on Vibrio harveyi [14] (Vibrio harveyi) and 2.73 µM (active) in the assay on Vibrio harveyi [15].
